{
  "source": "patent US20220016125A1",
  "about": "“RIBOFLAVIN FOR TREATING COLLAGENOUS TISSUES IN THE DISEASES OF JOINTS, PARTICULARLY OF INVERTEBRAL DISCS” (Albert-Ludwigs-Universitat Freiburg, priority 2018, published 2022)",
  "key": {"[1]": {"system": "collagen fibers in the transition zone between the annulus fibrosus and nucleus pulposus", "assay": "Riboflavin/UV crosslinking of collagen fibers in bovine intervertebral disc cryosections, autofluorescence microscopy", "details": "10 bovine samples, 0.6 mm slices; 0.1 mL of 0.25% riboflavin solution twice at 30 s interval; UV 370 nm, 9 mW/cm^2, two minutes", "experimental": "(§1) Five freshly frozen bovine intervertebral discs and two freshly frozen human intervertebral discs from the Anatomy department of the University of Freiburg were used for the experiments (see FIG. 6).\n(§2) The intervertebral discs were thinly cut into 0.6 mm thick slices using a cryomicrotome and placed on glass plates (see FIG. 7). The thin discs arise from the transition zone between the annulus fibrosus and nucleus pulposus, which is indicated by a rectangle in FIG. 6.\n(§3) A total of 10 bovine and 10 human samples were prepared and examined for the experiments.\n(§4) Before treatment with riboflavin, the samples were imaged by autofluorescence microscopy to visualize the collagen fibers. The architecture, orientation and crosslinking density of the collagen fibers in the samples before treatment are shown in FIGS. 9 a) and 10 a).\n(§5) To crosslink the collagen fibers, 0.1 mL of a riboflavin solution at a concentration of 0.25% was administered twice at a time interval of 30 seconds. The sample was then irradiated with UV light.\n(§6) A UV radiation source with an average wavelength of 370 nm (365-375 nm) was used to irradiate the samples. […]\n(§7) After the treatment, the collagen fibers were reimaged using autofluorescence microscopy in order to visualize the identical sample area. This allows changes in the crosslinking density of the collagen fibers to be detected."}, "[2]": {"system": "bovine intervertebral discs", "assay": "Young's modulus of fresh bovine intervertebral discs before and after UV irradiation (Biomomentum Mach-1)", "details": "8 mM riboflavin (riboflavin 5′-phosphate sodium salt hydrate) in PBS, 15 min soak, 365 nm UVA, 3.5 mW/cm^2, 15 minutes", "experimental": "For the characterization, Young's modulus or modulus of elasticity (Akhtar et. Al 2011) was determined locally on an established device (Biomomentum Mach-1 Biomomentum Inc.; Sim et al. 2014).\nFresh bovine tails were provided from the local meat processing plant within 2 hours of slaughter. The paravertebral structure was removed (FIG. 11).\nBovine intervertebral discs (IVDs), which are attached to the vertebral body, were isolated (FIG. 12).\nIn order to stabilize the samples on the device, the bovine vertebral bodies with attached intervertebral discs were fixed in PMMA bone cement (FIG. 13).\nWith the aid of the camera of the Biomomentum device, the surface of the bovine intervertebral discs was measured with respect to their biomechanical properties (Young's modulus) (FIG. 14).\nA solution with 8 mM riboflavin (riboflavin 5′-phosphate sodium salt hydrate, Sigmaaldrich) in PBS (phosphate buffered saline solution) and pH: 7.4 water (Thermofisher) was used to soak the exposed surface of the bovine intervertebral discs for 15 minutes (dark mode). Immediately afterwards, the samples were placed in the Biomomentum device for analysis (dark mode).\nAfter the analysis, the same sample was irradiated homogeneously with 365 nm UVA light (Opsytech Dr. Groebel-UV LED series L) at 3.5 mW/cm^2 for 15 minutes. A second analysis of the previously measured positions followed.\nA total of 38 measurements were carried out on 15 healthy bovine intervertebral discs.\nThe percentage stiffening corresponds to the percentage increase in Young's modulus after UV irradiation, compared to the value measured before UV irradiation."}, "[3]": {"system": "collagen fibers in the transition zone between the annulus fibrosus and nucleus pulposus", "assay": "Riboflavin/UV crosslinking of collagen fibers in human intervertebral disc cryosections, autofluorescence microscopy", "details": "10 human samples, 0.6 mm slices; 0.1 mL of 0.25% riboflavin solution twice at 30 s interval; UV 370 nm, 9 mW/cm^2, two minutes", "experimental": "as §1, §2, §3, §4, §5, §6, §7"}, "[4]": {"details": "compared to value before UV irradiation"}},
  "data": [
    {"smiles": "Cc1cc2nc3c(=O)[nH]c(=O)nc-3n(C[C@H](O)[C@H](O)[C@H](O)CO)c2cc1C", "note": "[riboflavin, 7,8-dimethyl-10-(D-ribit-1-yl)-isoalloxazine]", "values": [
      {"measurement": "crosslinking density of the collagen fibers", "setting": "[1]", "value": "visually evident increase in the crosslinking density"},
      {"measurement": "elastic properties (Young's modulus) after UV irradiation", "setting": "[2]; 38 measurements on 15 discs", "value": "Stiffening or reinforcement of the elastic properties (Young's modulus) was observed in all samples"},
      {"measurement": "maximum stiffening (percentage increase in Young's modulus after UV irradiation)", "setting": "[2]; [4]", "value": 348, "unit": "%"},
      {"measurement": "minimum stiffening or reinforcement (percentage increase in Young's modulus after UV irradiation)", "setting": "[2]; [4]", "value": 52, "unit": "%"},
      {"measurement": "crosslinking density of the collagen fibers", "setting": "[3]", "value": "visually evident increase in the crosslinking density"}
    ]}
  ]
}
